Experimental data as given in PubChem BioAssay AID493240 (Broad Institute, 2011).

Test system: SK-MEL-5 viability, ATP luminescence (CellTiter-Glo), 24 h
Assay: cytotoxicity in parental SK-MEL-5 melanoma cells – cell-based, CellTiter-Glo, cherry-picked, set 3, orthogonal assay for MITF inhibitor project, dose response (AID 493240)

| SMILES | AC50 [µM] |
| --- | --- |
| COc1ccc(-c2cc3c(nn2)-c2ccccc2C3=O)cc1 | 15 |
| CC(=O)N(C)C1=C(N2CCOCC2)C(=O)c2ccccc2C1=O | 7.92 |
| CC1CCC(C(C)C)C(OC(=O)Cn2c(-c3ccc(Br)cc3)[n+](C)c3ccccc32)C1 (stereo not drawn) | 15.2 |
| O=[N+]([O-])c1ccc(/C=N/n2cnc3ccccc32)s1 | 17.9 |
| CCN(CC)S(=O)(=O)c1ccc(NC(=O)c2cccnc2Cl)c(NC(=O)c2cccnc2Cl)c1 | 12.3 |
| CCN(CC)CCC(=O)N1C/C(=C/c2ccccc2)C(=O)/C(=C\c2ccccc2)C1 | 24 |
| O=C1/C(=N\S(=O)(=O)c2cccs2)C([n+]2ccccc2)=C([O-])c2ccccc21 | 5.27 |
| S=C=Nc1cccc(C2(N3CCCCC3)CCCCC2)c1 | 20.4 |
| CC1CCN(CC(CS(=O)(=O)c2ccc([N+](=O)[O-])cc2)N2CCC(C)CC2)CC1 (stereo not drawn) | 27.3 |
| COC(=O)c1ccc2c(c1O)C(=O)c1ccccc1C2=O | 3.74 |
| COCCCn1[nH]c2c3c(ccc2c1=O)C(=O)c1ccccc1C3=O | 16.5 |
| N/C(=N\OC(=O)c1ccccc1Cl)c1ccccn1 | 28.8 |
| O=C(NC1=C(Nc2ccc(Cl)cc2)C(=O)c2ccccc2C1=O)c1ccccc1 | 11.2 |
| CCn1c(/C=C/Nc2ccccc2)[n+](CC)c2cc(Cl)c(Cl)cc21 | 28.7 |
| C#CC(=O)N(c1ccc(OC)cc1OC)C(C(=O)NC1CCCC1)c1cccs1 (stereo not drawn) | 19.9 |
| COc1cc(NC(=O)COc2cc(O)c3c(c2)OC(C)(C)CC3=O)cc(OC)c1OC | 23.4 |
| O=C(CCl)N(c1ccccc1)C1CCS(=O)(=O)C1 (stereo not drawn) | 29.9 |
| Cc1nc2ccccc2n1/N=C/c1ccc([N+](=O)[O-])s1 | 7.45 |
| CCCCn1c(=N)n(CC(=O)c2ccc(Br)s2)c2ccccc21 | 18.5 |
| Cc1ccc(-c2c[n+](Cc3ccc(Cl)c(Cl)c3)c3n2CCC3)cc1 | 15.3 |
| O=C(/C=C/c1ccc(Cl)c([N+](=O)[O-])c1)c1ccc(O)cc1 | 27.3 |
| Cc1cc(C)cc(NS(=O)(=O)c2ccc3c(c2)c(=O)n(C)c(=O)n3C)c1 | 25.5 |
| O=C1Nc2cc(C(=O)NCCN3CCCCCC3)ccc2S/C1=C\c1ccccc1 | 19.2 |
| O=C(Cn1ncc(Cl)c(Cl)c1=O)NC1CCCCC1 | 20.5 |
| CCN(Cc1ccccc1)c1ccc(/C=N/N=C(N)N)cc1 | 17.9 |
| Cc1cc(NC(=O)c2cncc(Br)c2)ccc1NC(=O)c1cc2ccccc2o1 | 21.3 |
| Cc1c(CCOC(=O)c2ccc(Cl)cc2Cl)sc[n+]1CC(=O)c1ccc(Br)cc1 | 28.8 |

| SMILES | AC50 [µM] |
| --- | --- |
| O=C1c2cc(F)ccc2-n2c1nc1ccccc1c2=O | 5.5 |
| Cc1ccc(C(=O)N/C(=C\c2ccc(-c3ccc(Br)cc3)o2)C(=O)NCCCN(C)C)cc1 | 17.1 |
| O=C(COc1ccccc1)N/N=C/c1ccc([N+](=O)[O-])o1 | 22.9 |
| O=C1C(Cl)=C(Nc2ccccc2)C(=O)c2ccccc21 | 6.7 |
| Cc1ccc(C#CC[N+]2(CC#Cc3ccc(C)cc3)CCCCC2)cc1 | 16 |
| O=c1c2ccccc2nc(/C=C/c2ccc([N+](=O)[O-])o2)n1-c1ccc(O)cc1 | 14.9 |
| CC1CC2(C)Oc3ccccc3CC2C(C)C1CNCCCN(C)C (stereo not drawn) | 16.2 |
| CC(C)(c1ccccc1)c1ccc(OCC(O)CNC2CCN(Cc3ccccc3)CC2)cc1 (stereo not drawn) | 19.9 |
| Cc1ccc(-c2nc(C(=O)NCCCN(C)C)cc3c2[nH]c2ccccc23)cc1 | 18.8 |
| Cn1c(SCC(=O)N/N=C/c2ccc([N+](=O)[O-])s2)nnc1-c1ccccc1 | 21.5 |
| COc1cc(NC(=O)c2[nH]cnc2C(N)=O)cc(C(=O)Nc2cccc(C(F)(F)F)c2)c1 | 18.2 |
| CC1CCC(C(C)C)C(OC(=O)C[n+]2cc(-c3ccc(Cl)cc3)n3c2CCCCC3)C1 (stereo not drawn) | 17.2 |
| C#CCCc1ccccc1/C=[N+](/C)[O-] | 20.5 |
| COc1cc(/C=N/NC(N)=O)c(Br)cc1OCC(=O)Nc1ccccc1C | 27.2 |
| Cc1ccc2nc(N(CCCN(C)C)C(=O)c3ccc4c(c3)CCCC4)sc2c1 | 17.7 |
| Cn1nnnc1Sc1ncnc2scc(-c3ccc(C#N)cc3)c12 | 18.7 |
| CC(C)n1cc(/C=C/c2cc[n+](C)cc2)c2ccccc21 | 23 |
| Cc1ccc(NC(=O)CCl)cc1S(=O)(=O)N1CCCCCC1 | 28.3 |
| CCN(CC)CCNC(=O)c1c(C)n(-c2ccccc2)c2cc(Br)c(OC)cc12 | 19.8 |
| COc1cc(NC(=O)COc2ccccc2[N+](=O)[O-])ccc1NC(=O)c1cccs1 | 26.4 |
| COc1ccc(CNCCC(c2ccc(F)cc2)c2ccc(OC)cc2)cc1 (stereo not drawn) | 16.6 |
| Cc1[nH]c2ccccc2c1C(=O)CCl | 22.1 |
| COc1ccc(S(=O)(=O)N(C(C)=O)c2ccc(OC(C)=O)c3ccccc23)cc1[N+](=O)[O-] | 17 |
| CN1CCN(C2=C(NS(=O)(=O)c3ccccc3)C(=O)c3ccccc3C2=O)CC1 | 16.9 |
| COc1ccc(C(=O)/C=C/C(=O)N(CC(=O)NC2CCCCC2)Cc2ccccc2)c(O)c1 | 12.9 |
| COc1ccc(C(=O)/C=C/C(=O)N(CC(=O)NC2CCCCC2)CC2CCCO2)c(O)c1 (stereo not drawn) | 11.9 |
